Measured values published in US20240352183A1, “CONDUCTIVE POLYMER WITH COVALENT CAPTURE ABILITY AND METHODS OF USING SAME” (Duke University, priority 2021, published 2024).

Test: Solubility of EDOT^PEGn-HTL monomer variants in various solvents
Assay type: physicochemical
Details: compared among three variants (n=1,2,3)
Description: EDOT conjugates with HTL have not been reported previously. Initially a series of EDOT^PEGn-HTL monomers (n=1,2,3, . . . ) were synthesized, wherein it was anticipated that increasing the number of PEG repeats would improve solubility, at the risk of exacerbating sidechain steric interference (FIG. 2A). The HTL modification increases the molecular weight of the monomer. The unmodified EDOT has a molecular weight (MW) of […]; while EDOT^PEGn-HTL has a MW of 551 (n=1), 595 (n=2), 639 (n=3), or MW of 507+44×n. Thus, all of the candidate designs carry substantial steric bulk, which is inevitable.
Several conditions were tested, including various solvents, against the three variants. […] EDOT^PEG3-HTL was unable to be polymerized with PSS as the counter-ion. Specifically, whereas the formation of PEDOT:PSS is accompanied by an unmistakable darkening of a gold surface (i.e., the polymer is visible to the naked eye), no visual indication of polymerization was seen when EDOT was replaced with EDOT^PEG3-HTL (FIG. 3A and FIG. 3B). This held true over a wide range of voltage parameters and concentrations.

O=C(CCOCCOCCOCCNC(=O)COCC1COc2cscc2O1)NCCOCCOCCCCCCCl (stereo not shown) [EDOT^PEG3-HTL, N-(2-(2-((6-chlorohexyl)oxy)ethoxy)ethyl)-3-((1-(2,3-dihydrothieno[3,4-b][1,4]dioxin-2-yl)-4-oxo-2,8,11-trioxa-5-azatridecan-13-yl)oxy)propanamide]
solubility: most soluble
